From ChEMBL document CHEMBL1201862, “PubChem BioAssay data set” (2004)
The source made the active and inactive calls.

Assays:
[1] = cells; assay type: functional, cell-based
[2] = cells; assay type: functional, cell-based; remark: listed apart in the source
[3] = biological target: Fructose-bisphosphate aldolase (Mycobacterium tuberculosis, UniProt P9WQA3); test: Fluorescence-based biochemical high throughput dose response assay for inhibitors of the fructose-bisphosphate aldolase (FBA) of M. tuberculosis.; assay type: functional
Fructose-bisphosphate aldolase, sequence (P9WQA3 whole entry): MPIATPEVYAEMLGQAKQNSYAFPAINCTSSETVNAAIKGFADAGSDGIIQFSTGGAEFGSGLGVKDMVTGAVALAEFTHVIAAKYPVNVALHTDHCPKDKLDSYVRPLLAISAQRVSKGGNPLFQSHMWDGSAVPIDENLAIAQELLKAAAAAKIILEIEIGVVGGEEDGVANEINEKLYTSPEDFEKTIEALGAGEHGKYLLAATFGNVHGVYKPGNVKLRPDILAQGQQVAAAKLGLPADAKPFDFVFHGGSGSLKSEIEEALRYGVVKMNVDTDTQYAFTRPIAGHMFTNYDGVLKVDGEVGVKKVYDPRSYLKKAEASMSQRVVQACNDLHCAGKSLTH

[4] = biological target: 5-hydroxytryptamine receptor 2A (Mus musculus, UniProt P35363); assay type: functional, cell-based;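 note: CHO-K1 cells with tagged receptor and beta-arrestin; agonist potency measured as compound-induced activation of the receptor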
5-hydroxytryptamine receptor 2A, sequence (P35363 whole entry): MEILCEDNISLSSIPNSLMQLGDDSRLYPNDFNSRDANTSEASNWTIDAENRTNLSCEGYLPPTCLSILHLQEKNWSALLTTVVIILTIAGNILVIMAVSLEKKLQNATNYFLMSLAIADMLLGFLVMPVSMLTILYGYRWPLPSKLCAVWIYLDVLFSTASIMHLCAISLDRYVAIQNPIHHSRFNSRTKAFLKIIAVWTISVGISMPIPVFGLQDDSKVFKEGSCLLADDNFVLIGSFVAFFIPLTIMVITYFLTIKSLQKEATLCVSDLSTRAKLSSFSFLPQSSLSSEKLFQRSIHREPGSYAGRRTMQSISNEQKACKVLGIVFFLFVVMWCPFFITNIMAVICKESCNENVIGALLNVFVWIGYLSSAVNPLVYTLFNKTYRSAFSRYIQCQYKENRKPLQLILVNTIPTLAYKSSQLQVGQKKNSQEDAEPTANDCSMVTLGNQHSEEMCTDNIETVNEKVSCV

[5] = biological target: Mu-type opioid receptor (Homo sapiens, UniProt P35372); assay type: functional, cell-based;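 note: U2OS cells with beta-arrestin recruitment to OPRM1 by beta-gal complementation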
Mu-type opioid receptor, sequence (P35372 whole entry): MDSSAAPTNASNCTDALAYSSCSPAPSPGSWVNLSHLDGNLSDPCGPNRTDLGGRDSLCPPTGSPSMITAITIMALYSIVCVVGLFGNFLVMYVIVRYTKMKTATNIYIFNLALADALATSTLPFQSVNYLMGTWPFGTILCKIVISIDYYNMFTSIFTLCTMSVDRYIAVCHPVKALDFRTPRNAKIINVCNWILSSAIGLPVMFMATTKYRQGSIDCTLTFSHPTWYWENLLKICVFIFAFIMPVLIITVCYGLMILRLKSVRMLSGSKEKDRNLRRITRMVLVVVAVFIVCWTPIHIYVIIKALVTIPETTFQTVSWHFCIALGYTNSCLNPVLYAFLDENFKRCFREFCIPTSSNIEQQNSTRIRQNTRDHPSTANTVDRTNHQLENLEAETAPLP

[6] = AlphaScreen signal interference compounds, dose response, artefact control for ARNT-TACC3 interaction inhibitor project, biochemical, luminescence, cherry-pick (AID 651705); assay type: functional;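 note: AlphaScreen bead proximity signal that flags compounds interfering with the detection technology; potency reflects signal decrease which marks the compound as an assay artifact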
[7] = ARNT/TACC3 interaction disruptors, potency, confirmation, biochemical, AlphaScreen, cherry-picked samples (AID 651703); assay type: functional, Homo sapiens;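 note: His-tagged ARNT PAS-B domain paired with GST-TACC3 E629A dimer coactivator fragment; potency of inhibitors that break up the complex and lower AlphaScreen signal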
[8] = StAR promoter reporter inhibition counter-screen, dose response, counter-screen for LRH-1 inverse agonist project, cell-based, luminescence, luciferase reporter (AID 651969); assay type: functional
[9] = biological target: Steroidogenic factor 1 (Homo sapiens, UniProt Q13285); test: Counterscreen for inverse agonists of the liver receptor homolog-1 (LRH-1; NR5A2): Luminescence-based cell-based high throughput dose response assay to identify inverse agonists of the Steroidogenic Factor 1 Nuclear Receptor (SF1; NR5A1).; assay type: functional
Steroidogenic factor 1, sequence (Q13285 whole entry): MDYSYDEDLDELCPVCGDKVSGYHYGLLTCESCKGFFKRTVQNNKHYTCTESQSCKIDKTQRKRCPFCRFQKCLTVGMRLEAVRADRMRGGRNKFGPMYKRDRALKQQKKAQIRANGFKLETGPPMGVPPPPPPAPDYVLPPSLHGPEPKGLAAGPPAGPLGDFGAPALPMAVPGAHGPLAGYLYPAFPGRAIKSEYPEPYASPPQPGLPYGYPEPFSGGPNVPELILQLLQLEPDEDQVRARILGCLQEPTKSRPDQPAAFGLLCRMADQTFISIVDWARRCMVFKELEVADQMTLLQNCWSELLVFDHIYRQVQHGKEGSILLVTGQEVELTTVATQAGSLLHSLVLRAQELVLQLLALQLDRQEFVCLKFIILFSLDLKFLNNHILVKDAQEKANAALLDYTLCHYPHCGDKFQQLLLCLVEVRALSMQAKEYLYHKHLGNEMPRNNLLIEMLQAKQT

[10] = biological target: Nuclear receptor subfamily 5 group A member 2 (Homo sapiens, UniProt O00482); assay type: functional, cell-based;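 note: HEK293T cells transfected with LRH-1 and a StAR promoter luciferase reporter; potency for inhibitors that lower LRH-1 driven reporter light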
Nuclear receptor subfamily 5 group A member 2, sequence (O00482 whole entry): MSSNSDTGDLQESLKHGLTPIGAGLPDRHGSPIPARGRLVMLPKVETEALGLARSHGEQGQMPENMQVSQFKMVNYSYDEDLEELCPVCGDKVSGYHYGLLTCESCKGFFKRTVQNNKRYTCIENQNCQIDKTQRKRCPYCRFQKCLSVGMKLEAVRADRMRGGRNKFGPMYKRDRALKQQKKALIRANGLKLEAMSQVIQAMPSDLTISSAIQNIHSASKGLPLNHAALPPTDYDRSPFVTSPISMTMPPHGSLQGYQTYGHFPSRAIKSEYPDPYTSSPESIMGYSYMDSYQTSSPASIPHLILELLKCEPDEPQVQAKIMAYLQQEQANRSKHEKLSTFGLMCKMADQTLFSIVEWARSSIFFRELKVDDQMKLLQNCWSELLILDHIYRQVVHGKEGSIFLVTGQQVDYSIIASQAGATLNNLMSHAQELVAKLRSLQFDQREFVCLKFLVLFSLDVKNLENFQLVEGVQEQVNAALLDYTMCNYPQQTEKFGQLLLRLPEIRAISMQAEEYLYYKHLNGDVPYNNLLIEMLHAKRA

[11] = test system: Streptococcus; test: Group A Streptococcus viability loss, dose response, counter-screen for streptokinase expression inhibitor project, luminescence, BacTiterGlo (AID 1915); assay type: functional, organism-based;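 note: potency for reduction of bacterial viability or growth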
[12] = biological target: T1, Streptokinase A (Streptococcus pyogenes serotype M1, UniProt P10520); test: S. pyogenes streptokinase expression inhibitors, potency, dose response, plasminogen activation absorbance, OD405 (AID 1914); assay type: functional, Streptococcus pyogenes M1 GAS;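 note: secreted streptokinase activity via plasminogen activation per viability signal from cell pellet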
T1 sequence (P10520 whole entry): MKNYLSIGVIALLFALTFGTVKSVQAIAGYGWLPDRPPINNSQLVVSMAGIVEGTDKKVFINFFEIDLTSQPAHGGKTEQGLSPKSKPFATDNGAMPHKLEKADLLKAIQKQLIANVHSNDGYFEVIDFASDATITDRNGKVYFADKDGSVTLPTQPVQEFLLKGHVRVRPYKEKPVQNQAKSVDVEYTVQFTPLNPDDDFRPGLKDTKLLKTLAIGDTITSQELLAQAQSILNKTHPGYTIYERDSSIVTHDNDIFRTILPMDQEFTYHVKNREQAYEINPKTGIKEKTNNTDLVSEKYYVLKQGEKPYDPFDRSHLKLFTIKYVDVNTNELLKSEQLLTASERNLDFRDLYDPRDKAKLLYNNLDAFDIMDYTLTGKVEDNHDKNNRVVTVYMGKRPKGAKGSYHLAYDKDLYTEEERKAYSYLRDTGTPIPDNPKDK

[13] = test system: Streptococcus sp. 'group A'; test: growth inhibition of control SK(-) GAS strain, dose response, counter-screen for streptokinase expression inhibitor project, luminescence, kanamycin, BacTiterGlo, confirmation (AID 1900); assay type: functional, organism-based
[14] = microbe, parasite or virus in culture; assay type: functional; conditions: Mycobacterium tuberculosis
[15] = cells; assay type: functional
[16] = HEp-2 cell cytotoxicity, dose response, cytotoxicity control for RSV inhibitor project, HTS (AID 2410); assay type: functional; conditions: human respiratory syncytial virus
[17] = test system: Vero; test: cells; assay type: functional; conditions: Chlorocebus sabaeus
[18] = biological target: Long-chain-fatty-acid--AMP ligase FadD28 (Mycobacterium tuberculosis, UniProt P9WQ59); test: Fluorescence polarization aasay to screen for inhibitors that compete for the binding of FadD28 to a bisubstrate Measured in Biochemical System Using Plate Reader - 2147-01_Inhibitor_Dose_CherryPick_Activity.; assay type: functional, Mycobacterium tuberculosis H37Rv
Long-chain-fatty-acid--AMP ligase FadD28, sequence (P9WQ59 whole entry): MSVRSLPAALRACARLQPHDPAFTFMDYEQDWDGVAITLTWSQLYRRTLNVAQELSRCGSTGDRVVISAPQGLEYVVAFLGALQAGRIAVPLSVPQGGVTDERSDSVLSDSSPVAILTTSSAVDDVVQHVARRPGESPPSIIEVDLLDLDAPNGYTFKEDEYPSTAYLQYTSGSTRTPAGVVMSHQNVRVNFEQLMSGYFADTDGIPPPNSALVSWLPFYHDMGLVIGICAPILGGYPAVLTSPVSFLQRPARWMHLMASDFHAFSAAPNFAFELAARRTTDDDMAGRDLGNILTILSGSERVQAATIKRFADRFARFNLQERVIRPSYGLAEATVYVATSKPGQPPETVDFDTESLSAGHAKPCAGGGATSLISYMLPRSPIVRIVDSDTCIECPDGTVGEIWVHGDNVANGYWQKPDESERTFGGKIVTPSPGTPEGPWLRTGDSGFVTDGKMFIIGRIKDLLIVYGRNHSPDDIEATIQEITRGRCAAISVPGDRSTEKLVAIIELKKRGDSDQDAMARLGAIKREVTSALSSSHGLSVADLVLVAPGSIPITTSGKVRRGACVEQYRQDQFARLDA

[19] = biological target: T2, Probable nicotinate-nucleotide adenylyltransferase (Staphylococcus aureus (strain N315), UniProt P65502); assay type: functional, Staphylococcus aureus subsp. aureus N315;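 for IC50 Mean: confirmatory dose-response retesting of NadD inhibitor hits first found in an ultra-high-throughput screen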
T2 sequence (P65502 whole entry, the tested form may be a part): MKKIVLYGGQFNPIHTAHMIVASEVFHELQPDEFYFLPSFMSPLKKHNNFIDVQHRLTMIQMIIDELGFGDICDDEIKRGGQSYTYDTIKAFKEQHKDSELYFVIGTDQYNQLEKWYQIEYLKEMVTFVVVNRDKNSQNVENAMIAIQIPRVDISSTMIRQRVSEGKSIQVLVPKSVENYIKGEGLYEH

[20] = biological target: Photoreceptor-specific nuclear receptor (Homo sapiens, UniProt Q9Y5X4); assay type: functional, cell-based;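 note: CHO-S cells with Gal4-NCOR and VP16-NR2E3 two-hybrid luciferase reporter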
Photoreceptor-specific nuclear receptor, sequence (Q9Y5X4 whole entry, the tested form may be a part): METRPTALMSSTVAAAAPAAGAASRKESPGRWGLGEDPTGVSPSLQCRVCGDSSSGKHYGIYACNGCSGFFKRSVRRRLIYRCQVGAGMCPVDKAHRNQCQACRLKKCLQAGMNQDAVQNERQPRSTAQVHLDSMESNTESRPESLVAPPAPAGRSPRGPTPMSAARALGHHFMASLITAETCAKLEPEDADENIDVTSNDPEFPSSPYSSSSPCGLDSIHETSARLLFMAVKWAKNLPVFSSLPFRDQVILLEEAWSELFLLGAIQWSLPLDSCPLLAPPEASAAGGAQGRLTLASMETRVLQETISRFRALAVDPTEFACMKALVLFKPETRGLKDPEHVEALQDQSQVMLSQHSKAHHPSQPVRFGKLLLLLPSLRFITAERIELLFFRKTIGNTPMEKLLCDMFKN

[21] = biological target: T2, Probable nicotinate-nucleotide adenylyltransferase; assay type: functional, Staphylococcus aureus subsp. aureus N315; conditions: read-out: IC50_Mean
[22] = Counterscreen for […] of the human trace amine associated receptor 1 (TAAR1): Fluorescence-based cell-based high throughput dose response assay to identify nonselective Ga16 agonists.; assay type: functional
[23] = Counterscreen for antagonists of the human trace amine associated receptor 1 (hTAAR1): Fluorescence-based cell-based high throughput dose response assay to identify nonselective Ga16 antagonists.; assay type: functional
[24] = biological target: T3, Beta-2 adrenergic receptor (Homo sapiens, UniProt P07550); test: beta2AR agonists driving receptor internalization, dose response, cell-based, FAP fluorogen, flow cytometry, cherry pick 1 (AID 588763); assay type: functional
T3 sequence (P07550 whole entry): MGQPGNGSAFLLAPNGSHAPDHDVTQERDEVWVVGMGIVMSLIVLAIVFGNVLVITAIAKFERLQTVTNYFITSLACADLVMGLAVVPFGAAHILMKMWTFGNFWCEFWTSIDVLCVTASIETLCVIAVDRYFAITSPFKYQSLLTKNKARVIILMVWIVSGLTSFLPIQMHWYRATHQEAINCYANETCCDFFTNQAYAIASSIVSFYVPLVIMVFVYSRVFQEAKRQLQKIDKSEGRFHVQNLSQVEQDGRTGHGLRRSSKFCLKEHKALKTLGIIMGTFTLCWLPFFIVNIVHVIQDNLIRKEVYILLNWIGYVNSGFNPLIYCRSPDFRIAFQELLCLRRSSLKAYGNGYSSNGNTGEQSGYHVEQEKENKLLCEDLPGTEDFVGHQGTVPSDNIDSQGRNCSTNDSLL

[25] = biological target: T3, Beta-2 adrenergic receptor; test: Dose response for HTS for Beta-2AR agonists via FAP method from Powderset1.; assay type: functional
[26] = biological target: SUMO-activating enzyme (Homo sapiens, UniProt Q9UBT2); test: SUMOylation inhibitor hit validation, confirmation, SUMOylation inhibitor project, biochemical, AlphaScreen (AID 2018); assay type: functional
SUMO-activating enzyme, sequence (Q9UBE0 whole entry): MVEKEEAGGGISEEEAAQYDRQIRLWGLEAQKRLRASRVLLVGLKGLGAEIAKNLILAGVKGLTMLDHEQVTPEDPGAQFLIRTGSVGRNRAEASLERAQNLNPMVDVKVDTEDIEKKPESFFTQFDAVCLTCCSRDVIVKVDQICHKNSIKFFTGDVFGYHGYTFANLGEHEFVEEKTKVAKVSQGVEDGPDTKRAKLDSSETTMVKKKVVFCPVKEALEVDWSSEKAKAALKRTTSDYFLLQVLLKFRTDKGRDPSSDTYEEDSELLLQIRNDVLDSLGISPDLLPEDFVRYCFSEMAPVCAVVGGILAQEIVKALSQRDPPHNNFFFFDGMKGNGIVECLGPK
SUMO-activating enzyme, sequence (Q9UBT2 whole entry): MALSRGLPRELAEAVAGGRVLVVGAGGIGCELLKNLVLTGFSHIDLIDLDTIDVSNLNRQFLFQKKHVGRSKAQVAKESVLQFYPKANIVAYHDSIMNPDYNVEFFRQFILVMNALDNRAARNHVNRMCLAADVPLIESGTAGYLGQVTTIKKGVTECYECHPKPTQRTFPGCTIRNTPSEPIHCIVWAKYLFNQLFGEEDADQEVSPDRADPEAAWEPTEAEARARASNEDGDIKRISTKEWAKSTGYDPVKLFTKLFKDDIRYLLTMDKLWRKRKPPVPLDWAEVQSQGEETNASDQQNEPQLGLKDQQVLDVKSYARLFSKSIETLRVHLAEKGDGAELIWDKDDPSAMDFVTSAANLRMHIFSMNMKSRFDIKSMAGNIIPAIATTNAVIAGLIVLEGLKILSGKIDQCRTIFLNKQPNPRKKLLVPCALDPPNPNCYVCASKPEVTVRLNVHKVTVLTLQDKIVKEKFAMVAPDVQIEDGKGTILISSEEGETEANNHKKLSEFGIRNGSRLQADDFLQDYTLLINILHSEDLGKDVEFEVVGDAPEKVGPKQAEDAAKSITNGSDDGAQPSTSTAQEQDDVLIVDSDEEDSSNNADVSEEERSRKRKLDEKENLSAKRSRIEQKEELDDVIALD

[27] = biological target: Albumin (Bos taurus, UniProt P02769); test: Counterscreen for inhibitors of T-cell receptor (TCR)-CD3 interaction: Fluorescence-based biochemical high throughput dose response assay to identify inhibitors of T-cell receptor (TCR)-CD3 interaction using a TAMRA-labeled BSA probe.; assay type: functional
[28] = inhibitors of intracellular T. cruzi replication, confirmation, NIH3T3 host cells, beta-gal luminescence (AID 2044); assay type: functional, cell-based;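 note: intracellular parasites grown in NIH/3T3 mouse fibroblasts as host cells; luminescent beta-galactosidase reporter signal from transgenic T. cruzi replicating inside host cells; inhibitors lower the luminescence signal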
[29] = biological target: T4, RNA-binding protein pos-1 (Caenorhabditis elegans, UniProt G5EF15); test: inhibitors of POS-1/mex-3 RNA binding, dose response, biochemical, fluorescence polarization (AID 1964);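 note: purified POS-1 fused to maltose binding protein made in E. coli; potency of compounds blocking POS-1 binding to fluorescent RNA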
T4 sequence (G5EF15 whole entry): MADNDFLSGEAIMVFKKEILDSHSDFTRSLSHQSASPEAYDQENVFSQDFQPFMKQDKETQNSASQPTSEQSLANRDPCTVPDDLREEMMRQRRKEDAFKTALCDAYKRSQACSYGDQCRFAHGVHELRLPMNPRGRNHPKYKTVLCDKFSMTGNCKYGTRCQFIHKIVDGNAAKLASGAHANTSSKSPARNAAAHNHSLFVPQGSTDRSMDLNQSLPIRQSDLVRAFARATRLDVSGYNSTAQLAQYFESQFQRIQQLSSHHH

[30] = biological target: T5, Zinc finger protein mex-5 (Caenorhabditis elegans, UniProt Q9XUB2); test: MEX-5/TCR-2 RNA interaction inhibitors, dose response, biochemical, C. elegans, fluorescence polarization (AID 1960)
T5 sequence (Q9XUB2 whole entry): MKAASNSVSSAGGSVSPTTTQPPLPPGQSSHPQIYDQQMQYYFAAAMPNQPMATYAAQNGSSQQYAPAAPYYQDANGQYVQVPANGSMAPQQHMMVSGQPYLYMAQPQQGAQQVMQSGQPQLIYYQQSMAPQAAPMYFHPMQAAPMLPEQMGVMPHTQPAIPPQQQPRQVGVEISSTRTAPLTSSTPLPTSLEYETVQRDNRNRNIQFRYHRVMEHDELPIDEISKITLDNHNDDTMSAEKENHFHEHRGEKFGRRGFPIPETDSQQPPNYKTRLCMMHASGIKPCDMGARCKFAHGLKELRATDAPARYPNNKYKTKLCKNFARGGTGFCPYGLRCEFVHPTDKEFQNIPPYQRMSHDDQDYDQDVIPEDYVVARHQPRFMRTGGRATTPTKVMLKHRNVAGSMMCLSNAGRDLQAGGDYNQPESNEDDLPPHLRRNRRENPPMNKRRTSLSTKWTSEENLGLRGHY

[31] = cytotoxicity toward NIH3T3 fibroblasts, dose response, counter-screen, cell-based, ATP luminescence, mouse fibroblasts (AID 2010); assay type: functional;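 note: cells exposed to compound for about 90 hours before reading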

O=C(O)C1CC=C(Cl)CC1C(=O)NCC1OCCc2ccccc21 (stereo not given)
IC50 [1]: > 29.9 µM (inactive) | EC50 [2]: > 29.9 µM (inactive)

O=C(NC1CCCCC1)c1ccc2[nH]c(=O)c(=O)[nH]c2c1
IC50 [3]: 2.36 µM (active)

C1=CC2CC1CC2CN1CCN(c2ccccc2)CC1 (stereo not given)
EC50 [4]: 76.1 µM (inactive) | EC50 [5]: 92.5 µM (inactive)

COc1ccccc1NC(=O)CSc1ccc2nnc(-c3cccnc3)n2n1
AC50 [6]: 127 µM (active) | AC50 [7]: 118 µM (active)

COc1cc(NC(=O)Cn2ccsc2=N)c(C)cc1[N+](=O)[O-]
IC50 [8]: 35.9 µM (inactive) | IC50 [9]: 25.3 µM (inactive) | IC50 [10]: 35.9 µM (inactive)

Cc1c(Cl)cccc1-c1ccc(CNCc2ccccn2)o1
EC50 [11]: 70.2 µM (active) | AC50 [6]: 87.3 µM (active) | EC50 [12]: > 150 µM (not active) | EC50 [13]: 13 µM (active) | CC50 [14]: > 40 µM (active) | IC50 [15]: 0.55 µM (active)

Cc1cc(=O)oc2cc(OCCc3ccccc3)ccc12
CC50 [16]: 35.1 µM (active) | IC50 [3]: 1.35 µM (active) | CC50 [17]: > 25 µM (active)

Cc1nc2ccccc2n1-c1ccccc1
AC50 [18]: 29.5 µM (active)

O=C(Nc1nnc(-c2cccs2)o1)c1cc(-c2ccccc2)nc2ccccc12
IC50 [19]: 6.58 µM (active) | IC50 [20]: 3.67 µM (active) | IC50 [21]: 27.6 µM (active)

CCOCCOc1cccc(C(=O)NC(c2ccccc2)c2ccccc2)c1
EC50 [22]: 10.3 µM (inactive) | IC50 [23]: 10 µM (inactive)

COc1ccc(CN2CCC(Oc3ccc(C(=O)N4CCCC4)cc3)CC2)c(F)c1
EC50 [24]: 4.66 µM (active) | EC50 [25]: 5.42 µM (active)

O=C(COc1ccc2c3c(c(=O)oc2c1)CCCC3)NCCN1CCOCC1
IC50 [8]: 35.8 µM (inactive) | IC50 [9]: 17 µM (inactive) | IC50 [10]: 35.8 µM (inactive)

O=C(O)c1ccc(/C=N/NC(=O)c2ccc(CN3c4cccc5cccc(c45)S3(=O)=O)cc2)cc1
IC50 [19]: 5.94 µM (active) | IC50 [26]: 10.9 µM (active) | IC50 [21]: 27.2 µM (active)

CCCN[C@H]1CCc2nc(N)sc2C1
EC50 [4]: 0.00651 µM (active) | EC50 [5]: 92.5 µM (inactive)

O=C(N/N=C/c1cc(Cl)cc([N+](=O)[O-])c1O)c1ccc2c(c1)OCO2
IC50 [27]: > 94.1 µM (inactive) | EC50 [28]: 1.1 µM (active) | EC50 [29]: 127 µM (active) | EC50 [30]: 241 µM (active) | EC50 [31]: 5.65 µM (active)
